Experiments:
[1] = ester prodrug; Current Opinion in Investigational Drugs 2002, 3(1) 78-83; cited from earlier work
[2] = Decomposition in ethanol-water mixture; type: physicochemical; details: 20 mg in 6 mL ethanol and 4 mL purified water, 80° C., 64 hours
Protocol: The HPLC analysis was carried out using the following equipment and methodology. The column was a Prodigy ODS, 220×4.6 mm, 5 μm. The eluent was ethanol/water 50/50 at a flow rate of 2 mL/min. The detector was an UV-DAD at 242 nm.
Decomposition in Ethanol-Water Mixture
20 mg ciclesonide were dissolved in 6 mL ethanol and 4 mL purified water and the solution was kept at 80° C. for 64 hours.

formation of the corresponding 21-hydroxy analogue [2]: 3.99% | purity after storage in ethanol/water solution ([2]; initial purity 99.74%): 95.34%
SMILES: CC(C)C(=O)OCC(=O)[C@@]12O[C@H](C3CCCCC3)O[C@@H]1C[C@H]1[C@@H]3CCC4=CC(=O)C=C[C@]4(C)[C@H]3[C@@H](O)C[C@@]12C [ciclesonide, pregna-1,4-diene-3,20-dione, 16,17-[[(R)-cyclohexylmethylene]bis(oxy)]-11-hydroxy-21-(2-methyl-1-oxopropoxy)-(11β,16α)-(9CI)]
oral bioavailability [1]: essentially devoid of oral bioavailability

— patent US20070135398A1, “Process for the preparation of ciclesonide” (priority 2005, published 2007)
